In patent US20230152304A1 (SHENZHEN MINDRAY BIO-MEDICAL ELECTRONICS CO., LTD., priority 2020, published 2023):
Blank lines part the entries; values can stand above or below the molecule they belong to. Residues, ends and D or L forms follow the SMILES beside them.

Assays:
[1] = pKa of the amino group of the compound
Source text: For the compound having a plurality of amino groups/imino groups, the pKa of amino group described herein refers to the first dissociation constant, that is, pKa of amino group or imino group which firstly dissociates hydrogen ion.

[2] = tested on: aggregated platelets induced by ADP; assay: Platelet disaggregation rate of blood samples with ADP-induced platelet aggregation (hematology analyzer, PLT_O)
Method: The compounds in Table 1 above were respectively added to a diluent used for a hematology analyzer to prepare blood sample diluents. […] Each of the compounds in Table 1 (at a final concentration 0.01 mol/L) was added to the diluent separately, pH was adjusted to 14, and the osmotic pressure was adjusted to 200 mOsm/L to obtain the treatment solution.
The venous blood of a healthy subject was collected into blood anticoagulant tubes for later use. Two aliquot blood samples (1 ml/sample) were taken. The above-mentioned diluent was added to one of the samples, the resulting solution was mixed evenly, and then the platelet count was detected in a hematology analyzer (Mindray BC-6000Plus) and recorded as: PLT_O (unaggregated). The platelet aggregation inducer ADP (at a final concentration of 0.01 mmol/L) was added to the other sample, and the resulting solution was mixed evenly. Platelets were aggregated 5 min later, at this time the above-mentioned diluent was added, and then the blood containing the aggregated platelets was detected by the hematology analyzer to obtain the platelet count, which was recorded as: PLT_O (aggregated). Another 1 ml of blood sample was taken, the platelet aggregation inducer ADP (at a final concentration of 0.01 mmol/L) was added, and the resulting solution was mixed evenly. The above-mentioned treatment solution was added 5 min later, the resulting solution was mixed evenly, and then the platelet count of the treated blood was detected by the hematology analyzer and was recorded as: PLT_O (disaggregated).

[3] = tested on: platelet aggregation induced by THR; assay: Disaggregation over time of THR-induced platelet aggregation; format: cell-based; conditions: FIG. 8; 10 mmol/L, pH 9.5, THR 0.1-0.35 U
Method: (§1) Specifically, according to the method similar to Example 1, the amino group-containing compound (1-acetylguanidine) was added to a diluent to treat blood samples in which different concentrations of aggregation inducer were added. Then the samples were tested, in which the test was performed every 5 min after the treatment solution was added to each sample so as to obtain the change of disaggregation rates over time.
Similarly, FIG. 7 and FIG. 8 show curve graphs of platelet aggregation tests induced by THR at different concentrations. The substantially same method as the above-mentioned was used, except that ADP was replaced by THR. The concentrations of THR were 0.1 U, 0.15 U, 0.2 U, 0.23 U, 0.25 U, 0.28 U, 0.30 U and 0.35 U, respectively. […] This was because after a certain concentration of THR was added, soluble fibrinogen converted to […], causing blood coagulation, and platelets were also wrapped by […], resulting in a sharp increase in aggregation rate. […] However, a good disaggregation rate can be achieved when samples were tested immediately after treatment.

[4] = tested on: platelet aggregation induced by COL; assay: Disaggregation over time of COL-induced platelet aggregation; format: cell-based; conditions: FIG. 10; 10 mmol/L, pH 9.5, COL 0.05-20 mM, except lowest concentration
Method: as §1
FIG. 9 and FIG. 10 show curve graphs of platelet aggregation tests induced by COL at different concentrations. The substantially same method as the above-mentioned was used, except that ADP was replaced by COL. The concentrations of COL were 0.05 mM, 0.1 mM, 0.5 mM, 1 mM, 5 mM, 10 mM and 20 mM, respectively.

[5] = tested on: platelet aggregation induced by RIS; assay: Disaggregation over time of RIS-induced platelet aggregation; format: cell-based; conditions: FIG. 12; 10 mmol/L, pH 9.5, RIS 0.15-3 mM
Method: as §1
FIG. 11 and FIG. 12 show curve graphs of platelet aggregation tests induced by RIS at different concentrations. The substantially same method as the above-mentioned was used, except that ADP was replaced by RIS. The concentrations of RIS were 0.15 mM, 0.375 mM, 0.75 mM, 1.5 mM and 3 mM, respectively. […] In addition, the disaggregation effect of 1-acetylguanidine can reach the highest immediately for RIS at various concentrations, and remained relatively stable within 10 min. The rapid decrease in the disaggregation rate after 15 min was also because the blood in the samples was coagulated.

[6] = tested on: platelets; assay: Induction of platelet aggregation in venous blood by inducers (aggregation rate, impedance channel PLT_I); format: cell-based; conditions: for time until platelet aggregation reached the maximum degree: after inducer was added, different concentrations
Source text: Platelet aggregation can be induced by a variety of substances, thereby leading to blood coagulation. In order to investigate the disaggregation effects of amino group-containing compounds on platelet aggregation induced by different factors, in this example, substances, which can induce platelet aggregation, in the blood coagulation test scheme were selected according to the existing platelet aggregation pathways, and a variety of platelet aggregation models were established. The substances included adenosine diphosphate (ADP), thrombin (THR), collagen (COL) and ristocetin (RIS). […] In addition, the amino group-containing compounds can also effectively disaggregate the platelets having different inducements and aggregation degrees in certain concentration ranges and time ranges.
Specifically, several samples of 1 ml of venous blood were taken, and ADP was added to each sample to make the final concentrations be 0.01 mM, 0.25 mM, 0.5 mM and 1 mM respectively. The blood containing aggregated platelets was tested by using a hematology analyzer. The features including numbers, sizes, etc., of various cell particles in the blood were obtained by means of an impedance channel and an optical channel in the hematology analyzer. Normal blood was collected into blood anticoagulant tubes, and then the number of platelet particles detected by the impedance channel in the hematology analyzer was obtained and recorded as (PLT_I). When platelet aggregation occurred, the volume of a particle of the aggregated platelets was much larger than the volume of a single platelet and therefore the accurate count cannot be achieved by means of a corresponding platelet recognition mechanism. As a result, the platelet count was lowered and recorded as PLT_I (aggregated). No amino group-containing compound was added to the diluent of the impedance channel, thus the impedance channel reflected the degree of platelet aggregation in this aggregation model. The platelet count before aggregation was recorded as PLT_I (unaggregated), the platelet count after aggregation was recorded as PLT_I (aggregated), and the aggregation rate=PLT_I (aggregated)/PLT_I (unaggregated). The number of platelet particles tested by means of the optical channel in the hematology analyzer was obtained and recorded as (PLT_O). […] The platelet count before aggregation was recorded as PLT_O (unaggregated), and the platelet count after aggregation was recorded as PLT_O (undisaggregated). […] On the basis of the above principle, the model was established, and the disaggregation effect of the amino group-containing compound was quantitatively determined.

[7] = Table 3, method of Example 1 (0.01 mol/L, pH 14, ADP 0.01 mmol/L)
[8] = Table 4, pH 10.8, method of Example 1
[9] = Table 5, pH 9.5, method of Example 1
[10] = Table 2, compound 0.01 mol/L, pH 14, ADP 0.01 mmol/L
[11] = Table 4, pH 9.14, method of Example 1
[12] = Table 4, pH 5.75, method of Example 1

pKa ([1]; pKa, Table 3): 9.59 | pKa ([1]; pKa, Table 5): 9.6
Molecule: NCC(CN)CN [2-(aminomethyl)-propane-1,3-diamine]
Platelet disaggregation rate [2, 7]: 96.43% | disaggregation rate [2, 9]: 97.46%

pKa ([1]; pKa, Table 4): 8.18
Molecule: CC(N)C(N)=O (stereo not drawn) [2-aminopropanamide]
Platelet disaggregation rate ([2]; Table 4, pH 8.18, method of Example 1): 62.65%

pKa ([1]; pKa, Table 4): 9.14
Molecule: NCc1ccc(O)cc1 [4-hydroxybenzylamine]
Platelet disaggregation rate [2, 11]: 51.43%

pKa ([1]; pKa, Table 3): 13.2
Molecule: N=C(N)NC(=N)N [biguanide]
Platelet disaggregation rate [2, 7]: 97.54%

pKa ([1]; pKa): 4.67
Molecule: Nc1cccc(N)c1 [m-phenylenediamine]
Platelet disaggregation rate [2, 7]: 66.83%

pKa ([1]; pKa, Example 4): 10.1 | pKa ([1]; pKa, Table 3): 3.32
Molecule: Nc1ccc(S(=O)(=O)O)cc1 [sulfanilic acid]
Platelet disaggregation rate [2, 10]: 55.15% | Platelet disaggregation rate [2, 7]: 55.15%

pKa ([1]; pKa, Table 4): 9.12
Molecule: NCCS(=O)(=O)O [taurine]
Platelet disaggregation rate [2, 12]: 46.25%

pKa ([1]; pKa, Table 4): 10.6
Molecule: NCCc1ccc(O)cc1 [tyramine]
Platelet disaggregation rate [2, 11]: 48.44%

pKa ([1]; pKa, Table 4): 10.8
Molecule: N=C(N)NCC(=O)O [{[amino(imino)methyl]amino}-acetic acid]
Platelet disaggregation rate [2, 8]: 94.02%

pKa [1]: 13.2
Molecule: methyl guanidine
Platelet disaggregation rate [2, 8]: 86.36%

Second part, the molecule before the results:

Molecule: NCC(O)CN [1,3-diamino-2-propanol]
pKa ([1]; Table 3): 9.68 | Platelet disaggregation rate [2, 7]: 93.78%

Molecule: CC(=O)NC(=N)N [1-acetylguanidine]
pKa ([1]; pKa, Example 4): 8.33 | pKa ([1]; pKa, Table 4): 8.33 | pKa ([1]; pKa, Table 5): 8.3 | time after which the disaggregation effect decreased significantly [3]: 1 min | time after which the disaggregation effect decreased significantly [4]: 4 to 8 min | time after which the disaggregation rate decreased rapidly [5]: 15 min | disaggregation rate ([2]; FIG. 3, ambient pH varied 7.0-10, after pH increase): 97.32% | disaggregation rate ([2]; FIG. 3, ambient pH varied 7.0-10, low end of pH range): 35.23% | disaggregation effect on platelet aggregation with various aggregation degrees ([2]; FIG. 6, 10 mmol/L, pH 9.5, ADP 0.01-1 mM): remarkable disaggregation effects | disaggregation effect ([2]; FIG. 14, 50 mmol/L (total for combination, equal parts), ADP 0.1 mmol/L): 62.14% | Platelet disaggregation rate [2, 8]: 97.35% | disaggregation rate [2, 9]: 97.11%

Molecule: Nc1ccc(N)c(S(=O)(=O)O)c1 [2,5-diaminobenzene-sulfonic acid]
pKa ([1]; pKa, Table 3): 5.17 | Platelet disaggregation rate [2, 7]: 62.44%

Molecule: CNC(CC(N)=O)C(N)=O (stereo not drawn) [2-(methylamino) succinamide]
pKa ([1]; pKa, Table 3): 7.02 | Platelet disaggregation rate [2, 7]: 74.43%

Molecule: NCCCCO [4-amino-1-butanol]
pKa ([1]; pKa, Table 4): 10.3 | Platelet disaggregation rate ([2]; Table 4, pH 9.96, method of Example 1): 74.45%

Molecule: Nc1ccc(O)cc1 [4-aminophenol]
pKa [1]: 5.5 | Platelet disaggregation rate [2, 10]: 67.73% | Platelet disaggregation rate [2, 11]: 67.37%

Molecule: Nc1ncnc2c1ncn2[C@@H]1O[C@H](COP(=O)(O)OP(=O)(O)O)[C@@H](O)[C@H]1O [ADP, adenosine diphosphate]
platelet aggregation achieved at most ([6]; FIG. 5, ADP 0.01 mM): about 35% | time until platelet aggregation reached the maximum degree [6]: ≤ 5 min

Molecule: NCS(=O)(=O)O [aminomethanesulfonic acid]
pKa ([1]; pKa, Table 4): 5.75 | Platelet disaggregation rate [2, 12]: 52.44%

Molecule: N=C(N)NCCC[C@H](N)C(=O)O [arginine]
pKa ([1]; pKa, Table 5): 9 | disaggregation rate [2, 9]: 62.64%

Molecule: N[C@@H](CCC(=O)O)C(=O)O [glutamic acid]
pKa [1]: 9.6 | pKa ([1]; Table 5): 9.6 | disaggregation rate [2, 9]: 63.24%

Molecule: NCC(=O)NCC(=O)O [gly-gly] (H-Gly-Gly-OH)
pKa [1]: 9.6 | disaggregation rate [2, 9]: 57.29%

Molecule: N=C(N)N [guanidine]
pKa [1]: 13.17 | Platelet disaggregation rate [2, 10]: 84.35% | Platelet disaggregation rate [2, 7]: 84.35%

Molecule: NCCCCC(N)C(=O)NC(CCCCN)C(=O)O (stereo not drawn) [lys-lys]
pKa ([1]; pKa, Table 3): 11 | Platelet disaggregation rate [2, 7]: 85.75%

Molecule: NCCCCC(N)C(=O)O (stereo not drawn) [lysine]
pKa ([1]; pKa, Example 4): 10.7 | pKa ([1]; pKa, Table 3): 10.8 | Platelet disaggregation rate [2, 7]: 70.49%

Molecule: OCN(CO)C(CO)(CO)CO [reference compound]
pKa [1]: 6.5 | disaggregation rate [2, 9]: 24.0%

Molecule: NS(=O)(=O)O [sulfamic acid]
pKa [1]: 1.19 | Platelet disaggregation rate [2, 12]: 64.54%

Molecule: aminoguanidine
pKa ([1]; Table 3): 11.04 | Platelet disaggregation rate [2, 7]: 92.35%

Molecule: collagen
degree of platelet aggregation ([6]; FIG. 9, COL at various concentrations (0.05-20 mM)): ~100%

Molecule: ethylamine
pKa ([1]; Table 4): 10.67 | Platelet disaggregation rate ([2]; Table 4, pH 10.64, method of Example 1): 83.32%

Molecule: ristocetin
time until platelet aggregation reached the maximum degree [6]: 15 to 20 min

Molecule: tris(hydroxymethyl)aminomethane
pKa ([1]; Table 5): 8.1 | disaggregation rate [2, 9]: 97.32%
